Assay: Solubility of Silicon-Containing Compound E in aqueous CD solutions (clarity and stability, visual)
Type: physicochemical
Design: key to Solubility of Compound E: Stability: OK: When the aqueous solutions of the CD and the Silicon-Containing Compound E did not exhibit the conditions such as presence of precipitates and deposits, the solutions were considered as stable; NG: When the aqueous solutions of the CD and the Silicon-Containing Compound E exhibited the conditions such as presence of precipitates and deposits, the solutions were not considered as stable; key to Solubility of Compound E: Clarity: When the aqueous solutions of the CD and the Silicon-Containing Compound E were clear, the solutions were rated as “OK”; When the aqueous solutions of the CD and the Silicon-Containing Compound E were not clear, the solutions were rated as “NG”
Settings: purified water
Description: To determine “Solubility of Compound E” in the tables, the Silicon-Containing Compound E as another solute was added at respective ratios shown in the respective tables (see “Ratio of Compound E” in the tables) to the respective aqueous CD solutions after evaluation of the solubility of CD, and then the mixture was stirred on a shaker to prepare the respective aqueous solutions of the CD and the Silicon-Containing Compound E. Immediately after preparation of the aqueous solutions of the CD and the Silicon-Containing Compound E, the clarity of the aqueous solutions was visually evaluated. When the aqueous solutions of the CD and the Silicon-Containing Compound E were clear, the solutions were rated as “OK”. When the aqueous solutions of the CD and the Silicon-Containing Compound E were not clear, the solutions were rated as “NG”. “Stability” in “Solubility of Compound E” in the tables was determined by allowing the respective aqueous solutions of the CD and the Silicon-Containing Compound E after preparation to stand at ambient temperature for a predetermined period and then visually evaluating the conditions (such as presence of precipitates and deposits) of the solutions.

[1] = DEXYPEARL 1 w/w %, Compound E 0.1 w/w %
[2] = DEXYPEARL 2 w/w %, Compound E 0.1 w/w %
[3] = DEXYPEARL 3 w/w %, Compound E 0.1 w/w %
[4] = DEXYPEARL 4 w/w %, Compound E 0.1 w/w %
[5] = DEXYPEARL 5 w/w %, Compound E 0.1 w/w %
[6] = DEXYPEARL 6 w/w %, Compound E 0.1 w/w %
[7] = DEXYPEARL 7 w/w %, Compound E 0.1 w/w %
[8] = DEXYPEARL 8 w/w %, Compound E 0.1 w/w %
[9] = DEXYPEARL 9 w/w %, Compound E 0.1 w/w %
[10] = DEXYPEARL 10 w/w %, Compound E 0.1 w/w %
[11] = DEXYPEARL 20 w/w %, Compound E 0.1 w/w %
[12] = DEXYPEARL 30 w/w %, Compound E 0.1 w/w %
[13] = DEXYPEARL 40 w/w %, Compound E 0.1 w/w %
[14] = ISOELEAT 1 w/w %, Compound E 0.1 w/w %
[15] = ISOELEAT 2 w/w %, Compound E 0.1 w/w %
[16] = ISOELEAT 3 w/w %, Compound E 0.1 w/w %
[17] = ISOELEAT 4 w/w %, Compound E 0.1 w/w %
[18] = ISOELEAT 5 w/w %, Compound E 0.1 w/w %
[19] = ISOELEAT 6 w/w %, Compound E 0.1 w/w %
[20] = ISOELEAT 7 w/w %, Compound E 0.1 w/w %
[21] = ISOELEAT 8 w/w %, Compound E 0.1 w/w %
[22] = ISOELEAT 9 w/w %, Compound E 0.1 w/w %
[23] = ISOELEAT 10 w/w %, Compound E 0.1 w/w %
[24] = ISOELEAT 20 w/w %, Compound E 0.1 w/w %
[25] = ISOELEAT 30 w/w %, Compound E 0.1 w/w %
[26] = ISOELEAT 40 w/w %, Compound E 0.1 w/w %
[27] = ISOELEAT 50 w/w %, Compound E 0.1 w/w %
[28] = α-CD 1 w/w %, Compound E 0.1 w/w %
[29] = α-CD 1 w/w %, Compound E 0.2 w/w %
[30] = α-CD 1 w/w %, Compound E 0.3 w/w %
[31] = α-CD 1 w/w %, Compound E 0.4 w/w %
[32] = α-CD 1 w/w %, Compound E 0.5 w/w %
[33] = α-CD 1 w/w %, Compound E 0.6 w/w %
[34] = α-CD 1 w/w %, Compound E 0.7 w/w %
[35] = α-CD 1 w/w %, Compound E 0.8 w/w %
[36] = α-CD 1 w/w %, Compound E 0.9 w/w %
[37] = α-CD 1 w/w %, Compound E 1 w/w %
[38] = α-CD 7 w/w %, Compound E 0.1 w/w %
[39] = α-CD 7 w/w %, Compound E 0.2 w/w %
[40] = α-CD 7 w/w %, Compound E 0.3 w/w %
[41] = α-CD 7 w/w %, Compound E 0.4 w/w %
[42] = α-CD 7 w/w %, Compound E 0.5 w/w %
[43] = α-CD 7 w/w %, Compound E 0.6 w/w %
[44] = α-CD 7 w/w %, Compound E 0.7 w/w %
[45] = α-CD 7 w/w %, Compound E 0.8 w/w %
[46] = α-CD 7 w/w %, Compound E 0.9 w/w %
[47] = α-CD 7 w/w %, Compound E 1 w/w %
[48] = β-CD 1 w/w %, Compound E 0.1 w/w %

CCCCCCCCCCCCCCCCCC[N+](C)(C)CCC[Si](OCC)(OCC)OCC.[Cl-] [Compound E, Octadecyl dimethyl(3-triethoxysilylpropyl)ammonium chloride]
OK: Solubility of Compound E: Clarity [1] | Solubility of Compound E: Stability [1] | Solubility of Compound E: Clarity [2] | Solubility of Compound E: Stability [2] | Solubility of Compound E: Clarity [3] | Solubility of Compound E: Stability [3] | Solubility of Compound E: Clarity [4] | Solubility of Compound E: Stability [4] | Solubility of Compound E: Clarity [5] | Solubility of Compound E: Stability [5] | Solubility of Compound E: Clarity [6] | Solubility of Compound E: Stability [6] | Solubility of Compound E: Clarity [7] | Solubility of Compound E: Stability [7] | Solubility of Compound E: Clarity [8] | Solubility of Compound E: Stability [8] | Solubility of Compound E: Clarity [9] | Solubility of Compound E: Stability [9] | Solubility of Compound E: Clarity [10] | Solubility of Compound E: Stability [10] | Solubility of Compound E: Clarity [11] | Solubility of Compound E: Clarity [14] | Solubility of Compound E: Stability [14] | Solubility of Compound E: Clarity [15] | Solubility of Compound E: Stability [15] | Solubility of Compound E: Clarity [16] | Solubility of Compound E: Stability [16] | Solubility of Compound E: Clarity [17] | Solubility of Compound E: Stability [17] | Solubility of Compound E: Clarity [18] | Solubility of Compound E: Stability [18] | Solubility of Compound E: Clarity [19] | Solubility of Compound E: Stability [19] | Solubility of Compound E: Clarity [20] | Solubility of Compound E: Stability [20] | Solubility of Compound E: Clarity [21] | Solubility of Compound E: Stability [21] | Solubility of Compound E: Clarity [22] | Solubility of Compound E: Stability [22] | Solubility of Compound E: Stability [28] | Solubility of Compound E: Stability [29] | Solubility of Compound E: Stability [30] | Solubility of Compound E: Stability [31] | Solubility of Compound E: Stability [32] | Solubility of Compound E: Stability [33] | Solubility of Compound E: Stability [34] | Solubility of Compound E: Stability [38] | Solubility of Compound E: Stability [39] | Solubility of Compound E: Stability [40] | Solubility of Compound E: Stability [41] | Solubility of Compound E: Stability [42] | Solubility of Compound E: Stability [43] | Solubility of Compound E: Stability [44] | Solubility of Compound E: Stability [45] | Solubility of Compound E: Stability [46] | Solubility of Compound E: Stability [47] | Solubility of Compound E: Stability [48]
NG: Solubility of Compound E: Stability [11] | Solubility of Compound E: Clarity [12] | Solubility of Compound E: Stability [12] | Solubility of Compound E: Clarity [13] | Solubility of Compound E: Stability [13] | Solubility of Compound E: Clarity [23] | Solubility of Compound E: Stability [23] | Solubility of Compound E: Clarity [24] | Solubility of Compound E: Stability [24] | Solubility of Compound E: Clarity [25] | Solubility of Compound E: Stability [25] | Solubility of Compound E: Clarity [26] | Solubility of Compound E: Stability [26] | Solubility of Compound E: Clarity [27] | Solubility of Compound E: Stability [27] | Solubility of Compound E: Clarity [28] | Solubility of Compound E: Clarity [29] | Solubility of Compound E: Clarity [30] | Solubility of Compound E: Clarity [31] | Solubility of Compound E: Clarity [32] | Solubility of Compound E: Clarity [33] | Solubility of Compound E: Clarity [34] | Solubility of Compound E: Clarity [35] | Solubility of Compound E: Stability [35] | Solubility of Compound E: Clarity [36] | Solubility of Compound E: Stability [36] | Solubility of Compound E: Clarity [37] | Solubility of Compound E: Stability [37] | Solubility of Compound E: Clarity [38] | Solubility of Compound E: Clarity [39] | Solubility of Compound E: Clarity [40] | Solubility of Compound E: Clarity [41] | Solubility of Compound E: Clarity [42] | Solubility of Compound E: Clarity [43] | Solubility of Compound E: Clarity [44] | Solubility of Compound E: Clarity [45] | Solubility of Compound E: Clarity [46] | Solubility of Compound E: Clarity [47] | Solubility of Compound E: Clarity [48] | Solubility of Compound E: Clarity (β-CD 1 w/w %, Compound E 0.2 w/w %)

Reference: patent US20150296790A1, “SILICON-CONTAINING COMPOUND AQUEOUS SOLUTION AND ANTIBACTERIAL/ANTIVIRAL AGENT INCLUDING SAID SOLUTION” (JEX CO., LTD., priority 2012, published 2015)
